According to PubChem BioAssay AID248 (DTP/NCI, 2004):
Several values for one entry are separate records, joined by “and”; a condition that tells them apart may be missing. Equal entries are not always repeated. Inconclusive results and toxic doses are left out.

Test system: L1210 leukemia ip in BDF1 mice, survival T/C
Assay: NCI In Vivo Anticancer Drug Screen. Data for tumor model L1210 Leukemia (intraperitoneal) in B6D2F1 (BDF1) mice
Conditions: endpoint: mean survival time, higher = longer survival
Outline: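 Ratio derived from survival: compound-dosed mice over vehicle-dosed mice, all bearing a transplantable tumor.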

[1] = dose: 10.0 mg/kg/injection, schedule: Q01DX001 (ip), vehicle: saline
[2] = dose: 100.0 mg/kg/injection, schedule: Q01DX009 (ip), vehicle: Klucel (hydroxypropylcellulose) (HPC)
[3] = dose: 200.0 mg/kg/injection, schedule: Q01DX009 (ip), vehicle: Klucel (hydroxypropylcellulose) (HPC)
[4] = dose: 400.0 mg/kg/injection, schedule: Q01DX009 (ip), vehicle: Klucel (hydroxypropylcellulose) (HPC)
[5] = dose: 100.0 mg/kg/injection, schedule: Q01DX001 (ip), vehicle: Klucel (hydroxypropylcellulose) (HPC)
[6] = dose: 200.0 mg/kg/injection, schedule: Q01DX001 (ip), vehicle: Klucel (hydroxypropylcellulose) (HPC)
[7] = dose: 400.0 mg/kg/injection, schedule: Q01DX001 (ip), vehicle: Klucel (hydroxypropylcellulose) (HPC)
[8] = dose: 100.0 mg/kg/injection, schedule: Q04DX003 (ip), vehicle: Klucel (hydroxypropylcellulose) (HPC)
[9] = dose: 200.0 mg/kg/injection, schedule: Q04DX003 (ip), vehicle: Klucel (hydroxypropylcellulose) (HPC)
[10] = dose: 400.0 mg/kg/injection, schedule: Q04DX003 (ip), vehicle: Klucel (hydroxypropylcellulose) (HPC)

Q: `O=C(COc1ccc(Cl)cc1Cl)Nc1ccc(NC(=O)COc2ccc(Cl)cc2Cl)cc1` was tested. Which T/C (dose: 12.5 mg/kg/injection, schedule: Q01DX009 (ip), vehicle: Klucel (hydroxypropylcellulose) (HPC)) did it give?
A: 87 % of control

Q: What about the T/C (dose: 12.5 mg/kg/injection, schedule: Q04DX002 (ip), vehicle: Klucel (hydroxypropylcellulose) (HPC)) of the same molecule?
A: 95 % of control

Q: What about the T/C (dose: 25.0 mg/kg/injection, schedule: Q01DX009 (ip), vehicle: Klucel (hydroxypropylcellulose) (HPC)) of the same molecule?
A: 94 % of control

Q: And the T/C (dose: 25.0 mg/kg/injection, schedule: Q04DX002 (ip), vehicle: Klucel (hydroxypropylcellulose) (HPC))?
A: 95 % of control

Q: What about the T/C (dose: 50.0 mg/kg/injection, schedule: Q01DX009 (ip), vehicle: Klucel (hydroxypropylcellulose) (HPC)) of the same molecule?
A: 87 % of control

Q: And the T/C (dose: 50.0 mg/kg/injection, schedule: Q04DX002 (ip), vehicle: Klucel (hydroxypropylcellulose) (HPC))?
A: 92 % of control

Q: How did the T/C (dose: 1.75 mg/kg/injection, schedule: Q01DX009 (ip), vehicle: saline) turn out when `[Cl][Ni][Cl].[NH-]CCN1CC1.[NH-]CCN1CC1` was run?
A: 101 % of control

Q: What about the T/C (dose: 3.5 mg/kg/injection, schedule: Q01DX009 (ip), vehicle: saline) of the same molecule?
A: 97 % of control

Q: What about the T/C (dose: 7.0 mg/kg/injection, schedule: Q01DX009 (ip), vehicle: saline) of the same molecule?
A: 103 % of control

Q: What about the T/C (dose: 14.0 mg/kg/injection, schedule: Q01DX009 (ip), vehicle: saline) of the same molecule?
A: 98 % of control

Q: Which results are given for `O=NN(CCCl)C(=O)NC1CCC(CCl)CC1` (centres undefined)?
A: T/C (dose: 8.0 mg/kg/injection, schedule: Q01DX001 (ip), vehicle: saline with Tween-80): 114 % of control; T/C (dose: 12.0 mg/kg/injection, schedule: Q01DX001 (ip), vehicle: saline with Tween-80): 181 % of control; T/C (dose: 18.0 mg/kg/injection, schedule: Q01DX001 (ip), vehicle: saline with Tween-80): 183 % of control; T/C (dose: 26.0 mg/kg/injection, schedule: Q01DX001 (ip), vehicle: saline with Tween-80): 320 % of control; T/C (dose: 40.0 mg/kg/injection, schedule: Q01DX001 (ip), vehicle: saline with Tween-80): 310 % of control; T/C (dose: 60.0 mg/kg/injection, schedule: Q01DX001 (ip), vehicle: saline with Tween-80): 372 % of control; T/C (dose: 90.0 mg/kg/injection, schedule: Q01DX001 (ip), vehicle: saline with Tween-80): 297 % of control; T/C (dose: 200.0 mg/kg/injection, schedule: Q01DX001 (ip), vehicle: saline with Tween-80): 187 % of control

Q: Which T/C (dose: 15.0 mg/kg/injection, schedule: Q01DX Z (ip), vehicle: carboxymethylcellulose (CMC)) does the source give for `C/C(C/C(C)=N\N=C(N)N)=N/N=C(N)N` here?
A: 96 % of control

Q: What about the T/C (dose: 30.0 mg/kg/injection, schedule: Q01DX Z (ip), vehicle: carboxymethylcellulose (CMC)) of the same molecule?
A: 98 % of control

Q: And the T/C (dose: 60.0 mg/kg/injection, schedule: Q01DX Z (ip), vehicle: carboxymethylcellulose (CMC))?
A: 95 % of control

Q: And the T/C (dose: 60.0 mg/kg/injection, schedule: Q01DX Z (oral), vehicle: carboxymethylcellulose (CMC))?
A: 90 % of control

Q: And the T/C (dose: 120.0 mg/kg/injection, schedule: Q01DX Z (ip), vehicle: carboxymethylcellulose (CMC))?
A: 95 % of control

Q: And the T/C (dose: 120.0 mg/kg/injection, schedule: Q01DX Z (oral), vehicle: carboxymethylcellulose (CMC))?
A: 90 % of control

Q: And the T/C (dose: 240.0 mg/kg/injection, schedule: Q01DX Z (oral), vehicle: carboxymethylcellulose (CMC))?
A: 96 % of control

Q: What about the T/C (dose: 480.0 mg/kg/injection, schedule: Q01DX Z (oral), vehicle: carboxymethylcellulose (CMC)) of the same molecule?
A: 96 % of control

Q: What does the source list for `CC(C)C1=CC23CCC4C(C)(C(=O)Cl)CCCC4(C)C2CC1C1(Cl)C(=O)OC(=O)C31Cl` (centres undefined)?
A: T/C (dose: 75.0 mg/kg/injection, schedule: Q01DX001 (ip), vehicle: other): 94 % of control; T/C (dose: 150.0 mg/kg/injection, schedule: Q01DX001 (ip), vehicle: other): 93 % of control; T/C (dose: 300.0 mg/kg/injection, schedule: Q01DX001 (ip), vehicle: other): 89 % of control

Q: With `N#C[Se]C[Se]C#N` as the molecule, how does the T/C (dose: 1.56 mg/kg/injection, schedule: Q01DX001 (ip), vehicle: saline) read?
A: 95 % of control

Q: And the T/C (dose: 3.13 mg/kg/injection, schedule: Q01DX001 (ip), vehicle: saline)?
A: 100 % of control

Q: What about the T/C (dose: 6.25 mg/kg/injection, schedule: Q01DX001 (ip), vehicle: saline) of the same molecule?
A: 100 % of control

Q: Which T/C [1] does the source give for `C[N+]1(C)CCOCC1` here?
A: 99 % of control

Q: What about the T/C (dose: 20.0 mg/kg/injection, schedule: Q01DX001 (ip), vehicle: saline) of the same molecule?
A: 100 % of control

Q: And the T/C (dose: 40.0 mg/kg/injection, schedule: Q01DX001 (ip), vehicle: saline)?
A: 96 % of control

Q: Which T/C [2] does the source give for `COc1cc(NC(=O)Nc2ccc(Cl)cc2[N+](=O)[O-])c(OC)cc1Cl` here?
A: 94 % of control

Q: What about the T/C [3] of the same molecule?
A: 94 % of control

Q: And the T/C [4]?
A: 89 % of control

Q: How did the T/C [2] turn out when `CC(C)(CC(=O)O)SCCSC(C)(C)CC(=O)O` was run?
A: 97 % of control

Q: What about the T/C [3] of the same molecule?
A: 95 % of control

Q: What about the T/C [4] of the same molecule?
A: 92 % of control

Q: `CCCCCCCCCCCCCOc1ccc2ccccc2c1` was tested. Which T/C [5] did it give?
A: 326 % of control

Q: What about the T/C [6] of the same molecule?
A: 165 % of control

Q: What about the T/C [7] of the same molecule?
A: 92 % of control

Q: What does the source list for `CCCCC(O)(C(C)C)C(C)C`?
A: T/C (dose: 100.0 mg/kg/injection, schedule: Q01DX001 (ip), vehicle: carboxymethylcellulose (CMC)): 102 % of control; T/C (dose: 200.0 mg/kg/injection, schedule: Q01DX001 (ip), vehicle: carboxymethylcellulose (CMC)): 98 % of control; T/C (dose: 400.0 mg/kg/injection, schedule: Q01DX001 (ip), vehicle: carboxymethylcellulose (CMC)): 98 % of control

Q: Which T/C [2] does the source give for `CC1CCN(c2ccc([N+](=O)[O-])cc2[N+](=O)[O-])CC1` here?
A: 99 % of control

Q: What about the T/C [8] of the same molecule?
A: 104 % of control

Q: And the T/C [3]?
A: 99 % of control

Q: And the T/C [9]?
A: 98 % of control

Q: And the T/C [10]?
A: 103 % of control

Q: How did the T/C (dose: 12.5 mg/kg/injection, schedule: Q01DX009 (ip), vehicle: carboxymethylcellulose (CMC)) turn out when `CC1c2c(c3ccccc3n2C)CC[N+]1(C)C` (centres undefined) was run?
A: 109 % of control and 88 % of control

Q: And the T/C (dose: 25.0 mg/kg/injection, schedule: Q01DX009 (ip), vehicle: carboxymethylcellulose (CMC))?
A: 115 % of control and 86 % of control

Q: What about the T/C (dose: 25.0 mg/kg/injection, schedule: Q04DX002 (ip), vehicle: carboxymethylcellulose (CMC)) of the same molecule?
A: 102 % of control and 103 % of control

Q: What about the T/C (dose: 25.0 mg/kg/injection, schedule: Q04DX003 (ip), vehicle: carboxymethylcellulose (CMC)) of the same molecule?
A: 102 % of control

Q: And the T/C (dose: 50.0 mg/kg/injection, schedule: Q01DX009 (ip), vehicle: carboxymethylcellulose (CMC))?
A: 94 % of control and 88 % of control

Q: And the T/C (dose: 50.0 mg/kg/injection, schedule: Q04DX002 (ip), vehicle: carboxymethylcellulose (CMC))?
A: 94 % of control and 99 % of control

Q: What about the T/C (dose: 50.0 mg/kg/injection, schedule: Q04DX003 (ip), vehicle: carboxymethylcellulose (CMC)) of the same molecule?
A: 105 % of control

Q: And the T/C (dose: 100.0 mg/kg/injection, schedule: Q04DX003 (ip), vehicle: carboxymethylcellulose (CMC))?
A: 116 % of control

Q: For `CC(=O)O[C@H]1[C@H]2O[C@]23[C@@H]2CC[C@@H]4C[C@@H](O)CC[C@]4(C)[C@H]2CC[C@]3(C)[C@H]1c1ccc(=O)oc1`, which T/C (dose: 3.75 mg/kg/injection, schedule: Q01DX009 (ip), vehicle: Klucel (hydroxypropylcellulose) (HPC)) is on record?
A: 110 % of control

Q: What about the T/C (dose: 5.0 mg/kg/injection, schedule: Q01DX001 (ip), vehicle: other) of the same molecule?
A: 103 % of control

Q: What about the T/C (dose: 7.5 mg/kg/injection, schedule: Q01DX009 (ip), vehicle: Klucel (hydroxypropylcellulose) (HPC)) of the same molecule?
A: 98 % of control

Q: And the T/C (dose: 10.0 mg/kg/injection, schedule: Q01DX001 (ip), vehicle: other)?
A: 103 % of control

Q: And the T/C (dose: 15.0 mg/kg/injection, schedule: Q04DX003 (ip), vehicle: Klucel (hydroxypropylcellulose) (HPC))?
A: 98 % of control

Q: And the T/C (dose: 20.0 mg/kg/injection, schedule: Q01DX001 (ip), vehicle: other)?
A: 97 % of control

Q: Which T/C (dose: 5.0 mg/kg/injection, schedule: Q01DX001 (ip), vehicle: saline) does the source give for `CN1C(=O)C(Br)=C(Br)C1=O` here?
A: 97 % of control

Q: And the T/C [1]?
A: 94 % of control

Q: With `CCCCC[n+]1ccc(C(N)=O)cc1` as the molecule, how does the T/C (dose: 100.0 mg/kg/injection, schedule: Q04DX003 (ip), vehicle: saline) read?
A: 105 % of control

Q: And the T/C (dose: 200.0 mg/kg/injection, schedule: Q04DX003 (ip), vehicle: saline)?
A: 100 % of control

Q: With `FC(F)(F)c1nc(=S)c2cn[nH]c2[nH]1` as the molecule, how does the T/C (dose: 44.0 mg/kg/injection, schedule: Q01DX Z (ip), vehicle: methylcellulose (MC)) read?
A: 100 % of control

Q: And the T/C (dose: 66.0 mg/kg/injection, schedule: Q01DX Z (ip), vehicle: methylcellulose (MC))?
A: 91 % of control

Q: What about the T/C (dose: 100.0 mg/kg/injection, schedule: Q01DX Z (ip), vehicle: methylcellulose (MC)) of the same molecule?
A: 95 % of control

Q: With `O=c1ccc2c(-c3ccccc3O)c3ccc(O)cc3oc-2c1` as the molecule, how does the T/C [8] read?
A: 93 % of control

Q: And the T/C [9]?
A: 94 % of control

Q: What about the T/C [10] of the same molecule?
A: 92 % of control

Q: Which T/C (dose: 50.0 mg/kg/injection, schedule: Q01DX001 (ip), vehicle: Klucel (hydroxypropylcellulose) (HPC)) does the source give for `Cc1ccc(N=Cc2ccccc2O)cc1` here?
A: 93 % of control

Q: What about the T/C [5] of the same molecule?
A: 90 % of control

Q: What about the T/C [6] of the same molecule?
A: 93 % of control

Q: Which results are given for `O=S1(=O)N2CN3CN(C2)CN1C3`?
A: T/C [5]: 94 % of control; T/C [2]: 97 % of control; T/C [6]: 102 % of control; T/C [3]: 100 % of control; T/C [7]: 104 % of control
